Experimental data published in the C3SDB collision cross section collection.

Conditions: instrument: TW, calibrated with polyalanine and drug standards

| SMILES | collision cross section (N2) ([M+H]+) [Å²] | collision cross section (N2) ([M+H-H2O]+) [Å²] |
| --- | --- | --- |
| Cc1coc2c1C(=O)C(=O)c1c-2ccc2c1CCCC2(C)C [TANSHINONE IIA] | 164 | – |
| O=C(O)C(O)C(O)C(=O)O (stereo not given) [TARTARIC ACID] | 124.4 | – |
| CC[C@H]1OC(=O)[C@H](C)C(=O)[C@H](C)[C@@H](O[C@@H]2O[C@H](C)C[C@H](N(C)C)[C@H]2O)[C@](C)(OC)C[C@@H](C)C(=O)[C@H](C)[C@H]2N(CCCCn3cnc(-c4cccnc4)c3)C(=O)O[C@]12C [TELITHROMYCIN] | 269.7 | – |
| CC(C)(C)c1ccc(C(O)CCCN2CCC(C(O)(c3ccccc3)c3ccccc3)CC2)cc1 (stereo not given) [TERFENADINE] | 226.8 | – |
| CCC(=O)O[C@H]1CC[C@H]2[C@@H]3CCC4=CC(=O)CC[C@]4(C)[C@H]3CC[C@]12C [TESTOSTERONE PROPIONATE] | 188.2 | – |
| COc1ccc2cc1Oc1ccc(cc1)C[C@H]1c3cc(c(OC)cc3CCN1C)Oc1c(OC)c(OC)cc3c1[C@H](C2)N(C)CC3 [TETRANDRINE] | 245.3 | – |
| O=C(O[C@@H]1Cc2c(O)cc(O)cc2O[C@@H]1c1cc(=O)c(O)c2c(O)c(O)cc([C@H]3Oc4cc(O)cc(O)c4C[C@H]3O)c2c1)c1cc(O)c(O)c(O)c1 [THEAFLAVIN MONOGALLATES] | 245.7 | – |
| O=c1cc([C@H]2Oc3cc(O)cc(O)c3C[C@H]2O)cc2c([C@H]3Oc4cc(O)cc(O)c4C[C@H]3O)cc(O)c(O)c2c1O [THEAFLAVIN] | 219.8 | – |
| Nc1nc(=S)c2[nH]cnc2[nH]1 [THIOGUANINE] | 129.7 | – |
| Nc1nc(=S)c2ncn([C@@H]3O[C@H](CO)[C@@H](O)[C@H]3O)c2[nH]1 [THIOGUANOSINE] | 164 | – |
| O=c1oc2cc(O)ccc2s1 [TIOXOLONE] | 130.2 | – |
| CC(=O)OCC(=O)[C@@]1(O)[C@H](OC(C)=O)C[C@H]2[C@@H]3CCC4=CC(=O)C=C[C@]4(C)[C@@]3(F)[C@@H](O)C[C@@]21C [TRIAMCINOLONE DIACETATE] | 209.5 | – |
| CSc1nc2cc(Oc3cccc(Cl)c3Cl)c(Cl)cc2[nH]1 [TRICLABENDAZOLE] | 179.3 | – |
| COc1cc2c(c(OC)c1OC)-c1ccc(O)c(=O)cc1[C@@H](N)CC2 [TRIMETHYLCOLCHICINIC ACID] | 181 | – |
| Cc1cc2cc3c(C)cc(=O)oc3c(C)c2o1 [TRIOXSALEN] | 147.4 | – |
| CC(C)c1ccc2c(c1O)CC[C@H]1C3=C(CC[C@]21C)C(=O)OC3 [TRIPTOPHENOLIDE] | 179.4 | – |
| C[C@@H]1O[C@@H](OC[C@H]2O[C@@H](Oc3c(-c4ccc(OCCO)c(OCCO)c4)oc4cc(OCCO)cc(O)c4c3=O)[C@H](O)[C@@H](O)[C@@H]2O)[C@H](O)[C@H](O)[C@H]1O [TROXERUTIN] | 259 | – |
| NCCc1c[nH]c2ccccc12 [TRYPTAMINE] | – | 124.4 |
| COc1cc2c3cc1Oc1cc(ccc1O)C[C@@H]1c4c(cc(OC)c(O)c4Oc4ccc(cc4)C[C@@H]3N(C)CC2)CC[N+]1(C)C [TUBOCURARINE CHLORIDE] | 236 | – |
| CC(C)[C@@H]1NC(=O)[C@H](C)OC(=O)[C@@H](C(C)C)NC(=O)[C@@H](C(C)C)OC(=O)[C@H](C(C)C)NC(=O)[C@H](C)OC(=O)[C@@H](C(C)C)NC(=O)[C@@H](C(C)C)OC(=O)[C@H](C(C)C)NC(=O)[C@H](C)OC(=O)[C@@H](C(C)C)NC(=O)[C@@H](C(C)C)OC1=O [VALINOMYCIN] | 327.4 | – |
